According to patent US8822468B2 (Novartis AG, priority 2008, dated 2014):

target: T1, cMET receptor tyrosine kinase (GST-cMET (969-1390)) (Homo sapiens, UniProt P08581); assay: EPK cMET profiling assay (LanthaScreen TR-FRET antibody based kinase phosphorylation assay); type: biochemical; conditions: purified recombinant GST-cMET (969-1390), 2 μM ATP, 50 nM Fluorescein-PolyEAY, 60 minutes at room temperature; read-out: c-Met IC50
T1 construct: made in house
Outline: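 Compounds tested at eight final concentrations from 10 down to 0.003 µM against affinity-purified GST-cMET (969-1390, 0.3 nM) with 2 µM ATP and 50 nM fluorescein-PolyEAY in Tris buffer with MgCl2 and MnCl2, 1 h at room temperature. After EDTA stop, phosphoproduct detected by LanthaScreen TR-FRET with Tb-PY20 antibody, end-point measurement.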

T1 sequence (P08581 969-1390): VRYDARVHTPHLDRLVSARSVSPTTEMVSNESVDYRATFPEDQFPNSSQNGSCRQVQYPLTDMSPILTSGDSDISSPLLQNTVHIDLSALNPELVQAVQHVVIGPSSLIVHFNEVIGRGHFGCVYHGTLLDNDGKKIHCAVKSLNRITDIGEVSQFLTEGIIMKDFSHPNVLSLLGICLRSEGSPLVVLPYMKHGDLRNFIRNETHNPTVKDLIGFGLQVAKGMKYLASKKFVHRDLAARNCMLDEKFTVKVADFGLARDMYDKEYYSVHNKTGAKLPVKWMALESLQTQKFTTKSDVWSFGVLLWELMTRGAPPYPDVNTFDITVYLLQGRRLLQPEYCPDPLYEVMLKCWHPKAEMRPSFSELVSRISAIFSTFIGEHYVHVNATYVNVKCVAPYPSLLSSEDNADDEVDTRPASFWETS

SMILES | IC50 [nM]
C[C@H](c1ccc2ncccc2c1)c1cnc2ccc(-c3cnn(C)c3)nn12 [Example 158, 6-{(R)-1-[6-(1-Methyl-1H-pyrazol-4-yl)-imidazo[1,2-b]pyridazin-3-yl]-ethyl}-quinoline] | 540
C[C@@H](c1ccc2ncccc2c1)c1cnc2ccc(-c3cnn(C)c3)nn12 [Example 159, 6-{(S)-1-[6-(1-Methyl-1H-pyrazol-4-yl)-imidazo[1,2-b]pyridazin-3-yl]-ethyl}-quinoline] | 14
Cn1cc(-c2ccc3ncc(Cc4ccc5ncccc5c4F)n3n2)cn1 [Example 160, 5-Fluoro-6-[6-(1-methyl-1H-pyrazol-4-yl)-imidazo[1,2-b]pyridazin-3-ylmethyl]-quinoline] | 12
Cn1cc(-c2ccc3ncc(Cc4ccc5[nH]cnc5c4)n3n2)cn1 [Example 162, 3-(1H-Benzoimidazol-5-ylmethyl)-6-(1-methyl-1H-pyrazol-4-yl)-imidazo[1,2-b]pyridazine] | 34
Cn1cc(-c2ccc3ncc(C4(c5ccc6ncccc6c5)CC4)n3n2)cn1 [Example 163, 6-{1-[6-(1-Methyl-1H-pyrazol-4-yl)-imidazo[1,2-b]pyridazin-3-yl]-cyclopropyl}-quinoline] | 110
C[C@@H](c1cc2cn[nH]c2cc1F)c1cnc2ccc(-c3cnn(C)c3)nn12 [Example 165, 3-[(S)-1-(6-Fluoro-1H-indazol-5-yl)-ethyl]-6-(1-methyl-1H-pyrazol-4-yl)-imidazo[1,2-b]pyridazine] | 12
Cn1cc(-c2ccc3ncc(Cc4cc5cn[nH]c5cc4F)n3n2)cn1 [Example 167, 3-(6-Fluoro-1H-indazol-5-ylmethyl)-6-(1-methyl-1H-pyrazol-4-yl)-imidazo[1,2-b]pyridazine] | 6
Cn1cc(-c2ccc3ncc(Cc4cc5cccnc5cc4C(F)(F)F)n3n2)cn1 [Example 169, 6-[6-(1-Methyl-1H-pyrazol-4-yl)-imidazo[1,2-b]pyridazin-3-ylmethyl]-7-trifluoromethyl-quinoline] | 400
Cn1cc(-c2ccc3ncc(Cc4c(F)cc5ncccc5c4F)n3n2)cn1 [Example 170, 5,7-Difluoro-6-[6-(1-methyl-1H-pyrazol-4-yl)-imidazo[1,2-b]pyridazin-3-ylmethyl]-quinoline] | 6
OCCn1cc(-c2ccc3ncc(Cc4c(F)cc5ncccc5c4F)n3n2)cn1 [Example 171, 2-{4-[3-(5,7-Difluoro-quinolin-6-ylmethyl)-imidazo[1,2-b]pyridazin-6-yl]-pyrazol-1-yl}-ethanol] | < 3
Cn1cc(-c2ccc3ncc(Cc4ccc5ncccc5c4Cl)n3n2)cn1 [Example 172, 5-Chloro-6-[6-(1-methyl-1H-pyrazol-4-yl)-imidazo[1,2-b]pyridazin-3-ylmethyl]-quinoline] | 10
Cn1cc(-c2ccc3ncc(Cc4cc5cccnc5cc4F)n3n2)cn1 [Example 173, 7-Fluoro-6-[6-(1-methyl-1H-pyrazol-4-yl)-imidazo[1,2-b]pyridazin-3-ylmethyl]-quinoline] | 4
Cn1cc(-c2ccc3ncc([C@](C)(O)c4cc5cccnc5cc4F)n3n2)cn1 [Example 175, (R)-1-(7-Fluoro-quinolin-6-yl)-1-[6-(1-methyl-1H-pyrazol-4-yl)-imidazo[1,2-b]pyridazin-3-yl]-ethanol] | 38
C[C@@H](c1ccc2ncccc2c1)c1cnc2ccc(-c3cnn(CCO)c3)nn12 [Example 179, 2-{4-[3-((S)-1-Quinolin-6-yl-ethyl)-imidazo[1,2-b]pyridazin-6-yl]-pyrazol-1-yl}-ethanol] | 15
Fc1cc2ncccc2cc1Cc1cnc2ccc(-c3cnn(C4CCNCC4)c3)nn12 [Example 180, 7-Fluoro-6-[6-(1-piperidin-4-yl-1H-pyrazol-4-yl)-imidazo[1,2-b]pyridazin-3-ylmethyl]-quinoline] | 145
CN1CCC(n2cc(-c3ccc4ncc(Cc5cc6cccnc6cc5F)n4n3)cn2)CC1 [Example 181, 7-Fluoro-6-{6-[1-(1-methyl-piperidin-4-yl)-1H-pyrazol-4-yl]-imidazo[1,2-b]pyridazin-3-ylmethyl}-quinoline] | 65
C[C@H](c1c(F)cc2ncccc2c1F)c1cnc2ccc(-c3cnn(CCO)c3)nn12 [Example 183, 2-(4-{3-[(R)-1-(5,7-Difluoro-quinolin-6-yl)-ethyl]-imidazo[1,2-b]pyridazin-6-yl}-pyrazol-1-yl)ethanol] | 200
C[C@@H](c1c(F)cc2ncccc2c1F)c1cnc2ccc(-c3cnn(CCO)c3)nn12 [Example 184, 2-(4-{3-[(S)-1-(5,7-Difluoro-quinolin-6-yl)-ethyl]-imidazo[1,2-b]pyridazin-6-yl}-pyrazol-1-yl)ethanol] | < 3
C[C@@H](c1ccc2ncn(C)c2c1)c1cnc2ccc(-c3cnn(CCO)c3)nn12 [Example 187, 2-(4-{3-[(S)-1-(3-Methyl-3H-benzoimidazol-5-yl)-ethyl]-imidazo[1,2-b]pyridazin-6-yl}-pyrazol-1-yl)-ethanol] | 19
C[C@@H](c1c(F)cc2ncccc2c1F)c1cnc2ccc(-c3cnn(C)c3)nn12 [Example 192, 5,7-Difluoro-6-{(S)-1-[6-(1-methyl-1H-pyrazol-4-yl)-imidazo[1,2-b]pyridazin-3-yl]-ethyl}-quinoline] | < 3
C[C@H](c1c(F)cc2ncccc2c1F)c1cnc2ccc(-c3cnn(C)c3)nn12 [Example 193, 5,7-Difluoro-6-{(R)-1-[6-(1-methyl-1H-pyrazol-4-yl)-imidazo[1,2-b]pyridazin-3-yl]-ethyl}-quinoline] | 250
C[C@@H](c1cc2cnn(C)c2cc1F)c1cnc2ccc(-c3cnn(C)c3)nn12 [Example 194, 3-[(S)-1-(6-Fluoro-1-methyl-1H-indazol-5-yl)-ethyl]-6-(1-methyl-1H-pyrazol-4-yl)-imidazo[1,2-b]pyridazine] | 18
C[C@@H](c1ccc2[nH]ncc2c1)c1cnc2ccc(-c3cnn(C)c3)nn12 [Example 195, 3-[(S)-1-(2H-Indazol-5-yl)-ethyl]-6-(1-methyl-1H-pyrazol-4-yl)-imidazo[1,2-b]pyridazine] | 14
C[C@@H](c1ccc2c(cnn2C)c1)c1cnc2ccc(-c3cnn(C)c3)nn12 [Example 196, 3-[(S)-1-(1-Methyl-1H-indazol-5-yl)-ethyl]-6-(1-methyl-1H-pyrazol-4-yl)-imidazo[1,2-b]pyridazine] | 36
FC(F)(c1ccc2ncccc2c1)c1cnc2ccc(-c3cnn(C4CCNCC4)c3)nn12 [Example 197, 6-{Difluoro-[6-(1-piperidin-4-yl-1H-pyrazol-4-yl)-imidazo[1,2-b]pyridazin-3-yl]-methyl}-quinoline] | 61
Cn1cc(-c2ccc3ncc(Cc4c[nH]c5ncccc45)n3n2)cn1 [Example 199, 6-(1-Methyl-1H-pyrazol-4-yl)-3-(1H-pyrrolo[2,3-b]pyridin-3-ylmethyl)-imidazo[1,2-b]pyridazine] | 35.5
Cn1cc(-c2ccc3ncc(Cc4ccc5ncn(C)c5c4)n3n2)cn1 [Example 200, 3-(3-Methyl-3H-benzoimidazol-5-ylmethyl)-6-(1-methyl-1H-pyrazol-4-yl)-imidazo[1,2-b]pyridazine] | 23
Cn1cc(-c2ccc3ncc(Cc4ccc(O)cc4F)n3n2)cn1 [Example 202, 3-Fluoro-4-[6-(1-methyl-1H-pyrazol-4-yl)-imidazo[1,2-b]pyridazin-3-ylmethyl]-phenol] | 68
